Measured values from patent US4695552A, “Process and reagent for the determination of the hemoglobin-haptoglobin complex in the presence of free hemoglobin” (Boehringer Mannheim GmbH, priority 1983, dated 1987).

Assays:
Type in all cases: biochemical
free hemoglobin (Hb) [1] = target: T1, free hemoglobin (Hb) (Homo sapiens, UniProt P68871+P69905); assay: Peroxidase reaction of free hemoglobin with perborate and ABTS as substrate, with detergent added; conditions: ABTS 0.5 mmol/l., pH 3.8, 0.25 mg. Hb/ml.
T1 sequence (P69905 2-142 limits assumed): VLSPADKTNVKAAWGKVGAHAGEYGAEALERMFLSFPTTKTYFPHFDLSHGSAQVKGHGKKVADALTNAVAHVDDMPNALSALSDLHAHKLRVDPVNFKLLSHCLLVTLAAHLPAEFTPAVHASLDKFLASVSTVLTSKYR
T1 sequence (P68871 2-147 limits assumed): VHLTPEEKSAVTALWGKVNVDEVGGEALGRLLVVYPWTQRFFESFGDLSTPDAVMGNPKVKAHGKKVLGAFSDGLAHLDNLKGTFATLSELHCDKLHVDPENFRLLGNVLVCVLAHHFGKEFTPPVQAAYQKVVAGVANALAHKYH
Procedure: (§1) 2 ml. of a reagent solution containing 0.1 mol/liter of sodium citrate buffer (pH 3.8) and 0.5 mmol/liter ABTS are mixed with 0.025 ml. of a sample solution which contains free hemoglobin or the hemoglobin-haptoglobin complex with a hemoglobin concentration of 0.25 mg. Hb/ml. The peroxidase reaction is started with 0.020 ml. of 0.58 molar sodium perborate solution in 0.15 molar citric acid and the color development is monitored by extinction measurement at 436 nm. The reaction temperature is 25° C.
(§2) Analogous measurements are carried out in which, in addition to the above-mentioned components, there are added to the reagent solution the detergents mentioned in the following Table 3 in the concentrations there also given.

[2] = target: T2, hemoglobin haptoglobin complex (Hb:Hp) (Homo sapiens, UniProt P68871+P69905); assay: Peroxidase reaction of hemoglobin-haptoglobin complex with perborate and ABTS as substrate, with detergent added; conditions: ABTS 0.5 mmol/l., pH 3.8
T2 sequence (P69905 2-142 limits assumed): as the sequence (P69905 2-142 limits assumed) above
T2 sequence (P68871 2-147 limits assumed): as the sequence (P68871 2-147 limits assumed) above
T2 sequence (P00738 162-406 partner limits assumed): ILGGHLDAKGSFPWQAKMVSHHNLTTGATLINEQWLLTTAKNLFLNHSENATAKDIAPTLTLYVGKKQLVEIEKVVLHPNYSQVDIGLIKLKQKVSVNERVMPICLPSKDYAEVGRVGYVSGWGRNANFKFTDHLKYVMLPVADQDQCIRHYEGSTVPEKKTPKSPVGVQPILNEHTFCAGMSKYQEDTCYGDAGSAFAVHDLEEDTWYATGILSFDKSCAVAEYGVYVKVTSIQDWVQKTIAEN
Procedure: as §1, §2

free hemoglobin (Hb) [3] = target: T1, free hemoglobin (Hb); assay: Peroxidase reaction of free hemoglobin with peroxide and guaiacol as substrate, with detergent added; conditions: digitonin 0.5 mg./ml.; guaiacol 30 mmol/l.; pH 4.0; 0.25 mg. Hb/ml.
Procedure: (§3) 2 ml. of a reagent solution containing 0.1 mol/liter of sodium acetate buffer (pH 4.0) and 30 or 15 mmol/liter of guaiacol are mixed with 0.05 ml. of a sample solution which contains free hemoglobin or a hemoglobin-haptoglobin complex with a hemoglobin concentration of 0.25 mg. Hb/ml. The peroxidase reaction is started with 0.1 ml. of 0.58 molar sodium perborate solution in 0.15 molar citric acid and the color development is monitored by extinction measurement at 436 nm. The reaction temperature is 25° C. After a certain time, the color development comes to a stop. Because of the instability of the colored material, the extinction again decreases. The extinction changes given in the following Table 4 are the initial velocities determined by plotting the tangents on the extinction-time curves.
(§4) Analogous measurements are carried out in which, to the reagent solution, there has been added, in each case, one of the detergents given in Table 4 in the there-given concentration.

[4] = target: T2, hemoglobin haptoglobin complex (Hb:Hp); assay: Peroxidase reaction of hemoglobin-haptoglobin complex with peroxide and guaiacol as substrate, with detergent added; conditions: digitonin 0.5 mg./ml.; guaiacol 30 mmol/l.; pH 4.0
Procedure: as §3, §4

## C[C@@H]1CC[C@@]2(OC1)O[C@H]1[C@@H](O)[C@H]3[C@@H]4CC[C@H]5C[C@@H](O[C@@H]6O[C@H](CO)[C@H](O[C@@H]7O[C@H](CO)[C@@H](O)[C@H](O[C@@H]8OC[C@@H](O)[C@H](O)[C@H]8O)[C@H]7O[C@@H]7O[C@H](CO)[C@H](O)[C@H](O[C@@H]8O[C@H](CO)[C@@H](O)[C@H](O)[C@H]8O)[C@H]7O)[C@H](O)[C@H]6O)[C@H](O)C[C@]5(C)[C@H]4CC[C@]3(C)[C@H]1[C@@H]2C [digitonin]
Free hemoglobin (Hb) [1]; digitonin 0.15 mg./ml.
  ΔE/min. Hb: 21.8 mE/min.
Free hemoglobin (Hb) [1]; digitonin 0.3 mg./ml.
  ΔE/min. Hb: 20 mE/min.
[2]; digitonin 0.15 mg./ml.
  Hb:Hp / Hb: 37.6
  ΔE/min. Hb:Hp: 818 mE/min.
[2]; digitonin 0.3 mg./ml.
  Hb:Hp / Hb: 41
  ΔE/min. Hb:Hp: 818 mE/min.
Free hemoglobin (Hb) [3]
  ΔE/min. Hb: 3 mE/min.
[4]
  Hb:Hp / Hb: 50
  ΔE/min. Hb:Hp: 154 mE/min.
